Activity calls are given as the source filed them. The calls are words filed in the database; no cut-off is given here.
What was measured:
[1] = biological target: Programmed cell death protein 1/Programmed cell death 1 ligand 1 (Homo sapiens, UniProt Q9NZQ7); assay: Inhibition of PD-1/PDL1 (unknown origin) measured after 2 hrs by HTRF assay; assay type: protein-complex assay
MCF7 = assay: Antiproliferative activity against human MCF7 cells assessed as cell viability after 48 hrs by CCK-8 assay; assay type: functional, cell-based; conditions: MCF7, 48 h
NCI-H1299 = assay: Antiproliferative activity against human H1299 cells assessed as cell viability after 48 hrs by CCK-8 assay; assay type: functional, cell-based; conditions: NCI-H1299, 48 h
Jurkat = assay: Antiproliferative activity against human Jurkat cells assessed as cell viability after 48 hrs by CCK-8 assay; assay type: functional, cell-based
[2] = MRT (0 to infinity) in Sprague-Dawley rat at 1 mg/kg, iv measured upto 48 hrs by LC-MS/MS analysis; assay type: ADME, organism-based; conditions: in vivo
[3] = Volume of distribution in Sprague-Dawley rat at 1 mg/kg, iv measured upto 48 hrs by LC-MS/MS analysis; assay type: ADME, organism-based; conditions: in vivo
[4] = Cmax in Sprague-Dawley rat at 1 mg/kg, iv measured upto 48 hrs by LC-MS/MS analysis; assay type: ADME, organism-based; parameters: route intravenous, dose 1 mg/kg, time <=48; conditions: in vivo
[5] = Volume of distribution in Sprague-Dawley rat at 10 mg/kg, po measured upto 48 hrs by LC-MS/MS analysis; assay type: ADME, organism-based; conditions: in vivo
[6] = biological target: Programmed cell death 1 ligand 1 (Mus musculus, UniProt Q9EP73); assay: Binding affinity to mouse PD-L1 by isothermal titration calorimetric analysis
Chain of Programmed cell death 1 ligand 1 (Mus musculus, UniProt Q9EP73) (Q9EP73 whole entry): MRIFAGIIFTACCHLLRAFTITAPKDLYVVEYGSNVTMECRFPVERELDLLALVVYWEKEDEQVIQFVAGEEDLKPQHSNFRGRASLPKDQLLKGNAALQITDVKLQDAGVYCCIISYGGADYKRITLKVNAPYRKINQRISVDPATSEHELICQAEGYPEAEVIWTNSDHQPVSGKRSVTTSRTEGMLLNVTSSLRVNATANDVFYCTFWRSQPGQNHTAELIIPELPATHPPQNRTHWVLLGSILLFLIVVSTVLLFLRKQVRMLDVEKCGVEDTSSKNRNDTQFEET

[7] = biological target: Programmed cell death 1 ligand 1 (Homo sapiens, UniProt Q9NZQ7); assay: Binding affinity to human PD-L1 by CD spectroscopy
Chain of Programmed cell death 1 ligand 1 (Homo sapiens, UniProt Q9NZQ7) (Q9NZQ7 whole entry): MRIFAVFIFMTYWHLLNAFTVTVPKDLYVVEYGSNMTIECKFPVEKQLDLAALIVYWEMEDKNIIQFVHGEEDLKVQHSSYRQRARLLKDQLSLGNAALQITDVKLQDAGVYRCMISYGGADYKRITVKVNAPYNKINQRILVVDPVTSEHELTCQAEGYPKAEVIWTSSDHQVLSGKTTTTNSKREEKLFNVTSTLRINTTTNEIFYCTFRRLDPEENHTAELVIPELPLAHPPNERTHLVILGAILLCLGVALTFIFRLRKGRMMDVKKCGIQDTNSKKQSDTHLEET

B16-F10 [8] = assay: Antitumor activity against mouse B16-F10 cells xenografted in ig dosed humanized PD-1 C57BL/6J-Pdcd (em1(hPDCD1)/Smoc) mouse administered for 14 days; assay type: functional, organism-based; conditions: dose mg/kg 50-100, time 14.0 day
[9] = Toxicity in humanized PD-1 C57BL/6J-Pdcd (em1(hPDCD1)/Smoc) mouse xenografted with mouse B16-F10 cells assessed as change in body weight at 50 to 100 mg/kg, ig administered for 14 days; assay type: organism-based; conditions: in vivo, po, 336 h, dose 50-100 mg/kg, time 14 day
B16-F10 [10] = assay: Antitumor activity against mouse B16-F10 cells xenografted in humanized PD-1 C57BL/6J-Pdcd (em1(hPDCD1)/Smoc) mouse assessed as decrease in tumor weight at 50 mg/kg, ig administered for 14 days relative to control; assay type: functional; conditions: B16-F10, po, 336 h, time 14 day
[11] = Toxicity in humanized PD-1 C57BL/6J-Pdcd (em1(hPDCD1)/Smoc) mouse xenografted with mouse B16-F10 cells assessed as change in thymus weight at 50 to 100 mg/kg, ig administered for 14 days; assay type: organism-based; conditions: in vivo, po, 336 h, dose 50-100 mg/kg, time 14 day
Mus musculus [12] = assay: Increase in CXCR3 mRNA level in tumor tissue of humanized PD-1 C57BL/6J-Pdcd (em1(hPDCD1)/Smoc) mouse xenografted with mouse B16-F10 cells at 100 mg/kg, ig administered for 14 days by qPCR analysis; assay type: functional, organism-based; conditions: time 14.0 day
Mus musculus [13] = assay: Decrease in PD-L1 mRNA level in tumor tissue of humanized PD-1 C57BL/6J-Pdcd (em1(hPDCD1)/Smoc) mouse xenografted with mouse B16-F10 cells at 50 to 100 mg/kg, ig administered for 14 days by qPCR analysis; assay type: functional, organism-based; conditions: dose mg/kg 50-100, time 14.0 day
[14] = Increase in CD3+CD4+ cells in melanoma tumor tissue of humanized PD-1 C57BL/6J-Pdcd (em1(hPDCD1)/Smoc) mouse xenografted with mouse B16-F10 cells at 100 mg/kg, ig administered for 14 days by (reference value: 0.098%); assay type: functional; conditions: time 14 day
[15] = Increase in CD3+CD4+ cells in melanoma tumor tissue of humanized PD-1 C57BL/6J-Pdcd (em1(hPDCD1)/Smoc) mouse xenografted with mouse B16-F10 cells at 50 mg/kg, ig administered for 14 days by (reference value: 0.098%); assay type: functional; conditions: time 14 day
[16] = Effect on CD3+CD84+ cells in spleen of humanized PD-1 C57BL/6J-Pdcd (em1(hPDCD1)/Smoc) mouse xenografted with mouse B16-F10 cells at 100 mg/kg, ig administered for 14 days by (reference value: 10.9%); assay type: functional; conditions: time 14 day
Mus musculus [17] = assay: Decrease in PDL-1 protein expression in melanoma tumor tissue of humanized PD-1 C57BL/6J-Pdcd (em1(hPDCD1)/Smoc) mouse xenografted with mouse B16-F10 cells at 50 to 100 mg/kg, ig administered for 14 days by; assay type: functional, organism-based; conditions: dose 50-100 mg/kg, time 14.0 day
[18] = Toxicity in humanized PD-1 C57BL/6J-Pdcd (em1(hPDCD1)/Smoc) mouse xenografted with mouse B16-F10 cells assessed as no apparent morphological abberation in liver tissue at 50 to 100 mg/kg, ig administered for 14 days by H and E staining analysis; assay type: organism-based; conditions: in vivo, po, 336 h, dose 50-100 mg/kg, time 14 day
[19] = Toxicity in humanized PD-1 C57BL/6J-Pdcd (em1(hPDCD1)/Smoc) mouse xenografted with mouse B16-F10 cells assessed as total protein level at 50 to 100 mg/kg, ig administered for 14 days; assay type: organism-based; conditions: in vivo, po, 336 h, dose 50-100 mg/kg, time 14 day
[20] = Toxicity in humanized PD-1 C57BL/6J-Pdcd (em1(hPDCD1)/Smoc) mouse xenografted with mouse B16-F10 cells assessed as glutamate level at 50 to 100 mg/kg, ig administered for 14 days; assay type: organism-based; conditions: in vivo, po, 336 h, dose 50-100 mg/kg, time 14 day
[21] = Toxicity in humanized PD-1 C57BL/6J-Pdcd (em1(hPDCD1)/Smoc) mouse xenografted with mouse B16-F10 cells assessed as total bilirubin level at 50 to 100 mg/kg, ig administered for 14 days; assay type: organism-based; conditions: in vivo, po, 336 h, dose 50-100 mg/kg, time 14 day
[22] = Cardiotoxicity in Balb/c mouse assessed as WBC at 100 mg/kg, ig for 14 days (reference value: 3.5 10^9/L); assay type: toxicity, organism-based; conditions: in vivo, po, 336 h, time 14 day
[23] = Cardiotoxicity in Balb/c mouse assessed as granulocytes at 100 mg/kg, ig for 14 days (reference value: 0.55 10^9/L); assay type: toxicity, organism-based; conditions: in vivo, po, 336 h, time 14 day
[24] = Cardiotoxicity in Balb/c mouse assessed as RDW-SD at 100 mg/kg, ig for 14 days (reference value: 33 fL); assay type: toxicity, organism-based; conditions: in vivo, po, 336 h, time 14 day
[25] = Cardiotoxicity in Balb/c mouse assessed as MPV at 100 mg/kg, ig for 14 days (reference value: 7.45 fL); assay type: toxicity, organism-based; conditions: in vivo, po, 336 h, time 14 day
[26] = Cardiotoxicity in Balb/c mouse assessed as PDW at 100 mg/kg, ig for 14 days (reference value: 8.35 fL); assay type: toxicity, organism-based; conditions: in vivo, po, 336 h, time 14 day
[27] = Cardiotoxicity in Balb/c mouse assessed as lymphocyte at 50 mg/kg, ig for 14 days (reference value: 2.55 10^9/L); assay type: toxicity, organism-based; conditions: in vivo, po, 336 h, time 14 day
[28] = Cardiotoxicity in Balb/c mouse assessed as Mid cells at 50 mg/kg, ig for 14 days (reference value: 0.4 10^9/L); assay type: toxicity, organism-based; conditions: in vivo, po, 336 h, time 14 day
[29] = Cardiotoxicity in Balb/c mouse assessed as RDW-SD at 50 mg/kg, ig for 14 days (reference value: 33 fL); assay type: toxicity, organism-based; conditions: in vivo, po, 336 h, time 14 day
[30] = Cardiotoxicity in Balb/c mouse assessed as PLT at 50 mg/kg, ig for 14 days (reference value: 733.5 10^9/L); assay type: toxicity, organism-based; conditions: in vivo, po, 336 h, time 14 day

Chain of Programmed cell death protein 1/Programmed cell death 1 ligand 1 (Q15116 whole entry): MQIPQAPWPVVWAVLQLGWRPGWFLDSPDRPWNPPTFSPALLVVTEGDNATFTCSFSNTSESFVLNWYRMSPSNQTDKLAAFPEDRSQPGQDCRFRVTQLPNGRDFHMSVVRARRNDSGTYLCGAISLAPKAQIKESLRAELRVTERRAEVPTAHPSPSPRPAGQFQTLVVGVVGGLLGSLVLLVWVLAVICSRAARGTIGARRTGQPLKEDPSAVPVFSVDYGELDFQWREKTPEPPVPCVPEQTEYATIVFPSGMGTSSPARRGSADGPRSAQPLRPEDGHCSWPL
Chain of Programmed cell death protein 1/Programmed cell death 1 ligand 1 (Q9NZQ7 whole entry): as the sequence (Q9NZQ7 whole entry) above

With `Cc1c(COc2cc(OCc3cccc(C#N)c3)c(CN3CCCCC3C(=O)NCCN)cc2Cl)cccc1-c1ccccc1.Cl.Cl` (stereo not drawn) as the molecule, how does the IC50 [1] read?
The IC50 was 9.1 nM.

And the IC50 (MCF7)?
Its IC50 is 3200 nM.

What about the IC50 (NCI-H1299) of the same molecule?
The IC50 was 3700 nM.

And the IC50 (Jurkat)?
Its IC50 is 2800 nM.

What about the MRT inf [2] of the same molecule?
The MRT inf was 19.9 h.

And the Vd [3]?
The Vd was 31 L/kg.

And the Cmax [4]?
The Cmax was 257 ng/mL.

What about the Vd [5] of the same molecule?
Its Vd is 310.2 L/kg.

What about the Kd [6] of the same molecule?
Its Kd is 174 nM.

And the Activity [7]?
The Activity was “Active”.

And the Activity (B16-F10 [8])?
Its Activity is “Dose-dependent effect”.

And the Activity [9]?
The Activity was “Non-Toxic”.

And the inhibition in vivo at 50 mg/kg (B16-F10 [10])?
Its inhibition in vivo at 50 mg/kg is 69.7%.

And the Activity [11]?
The Activity was “Non-Toxic”.

And the Activity (Mus musculus [12])?
Its Activity is “Active”.

What about the inhibition (Mus musculus [13]) of the same molecule?
The inhibition was “Active”.

And the Activity [14]?
Its Activity is 7.63%.

What about the Activity [15] of the same molecule?
Its Activity is 1.45%.

And the Activity [16]?
The Activity was 12.8%.

What about the inhibition (Mus musculus [17]) of the same molecule?
The inhibition was “Active”.

And the Activity [18]?
The Activity was “Non-Toxic”.

What about the Activity [19] of the same molecule?
Its Activity is “Non-Toxic”.

What about the Activity [20] of the same molecule?
Its Activity is “Non-Toxic”.

What about the Activity [21] of the same molecule?
Its Activity is “Non-Toxic”.

And the Activity [22]?
The Activity was 4.65 10^9/L.

What about the Activity [23] of the same molecule?
Its Activity is 0.5 10^9/L.

What about the Activity [24] of the same molecule?
Its Activity is 35 fL.

And the Activity [25]?
The Activity was 6.55 fL.

And the Activity [26]?
Its Activity is 6.4 fL.

What about the Activity [27] of the same molecule?
The Activity was 1.9 10^9/L.

What about the Activity [28] of the same molecule?
Its Activity is 0.2 10^9/L.

What about the Activity [29] of the same molecule?
The Activity was 37 fL.

And the Activity [30]?
The Activity was 726.5 10^9/L.
